{
  "source": "paper PMC11206988",
  "about": "“Study on the Effect of Pharmaceutical Excipient PEG400 on the Pharmacokinetics of Baicalin in Cells Based on MRP2, MRP3, and BCRP Efflux Transporters” (Pharmaceutics, 2024)",
  "key": {"[1]": {"assay": "Pharmacokinetic study of baicalin in HepG2 cells (intracellular concentrations by UPLC-MS/MS)", "format": "in vitro ADME, human", "conditions": "human, intracellular; for AUC(0-t) at 100 μM / Cmax at 100 μM / half-life at 100 μM: HepG2 cells", "description": "(§1) The samples were quantified by UPLC-MS/MS, which consisted of a Dionex Ultimate 3000 UPLC system (Thermo Fisher Scientific, Waltham, MA, USA) and a triple quadrupole tandem mass spectrometer (Thermo Fisher Scientific, Waltham, MA, USA). The mass spectrometry was performed using an ESI ion source and in positive ion mode. The chromatograms are shown in Figure S1 of the Supplementary Materials. The samples were analyzed by a Waters XBridge BEH C18 column (2.1 × 100 mm). Mobile phase A consists of acetonitrile, while mobile phase B consists of water containing 0.1% formic acid. The elution program was as follows: B was initially 90%, 0 to 9 min B decreased from 90% to 27%, and 9.1 min to 12 min increased from 27% to 90% B. The flow rate of the mobile phase was 0.3 mL/min, the temperature of the automatic injector was 5 °C, and the injection volume was 10 μL. The m/z for BG and B6G was 447 → 271, for baicalein m/z 271 → 123, and for genistein (IS) m/z 271 → 153. Other mass spectrometry parameters included sheath gas (Arb) pressure, 20 psi, and auxiliary gas (Arb) pressure, 2 psi; source voltage, 4.8 KV, and capillary voltage, 2.5 KV; and ion-transfer-tube temperature, 375 °C, and atomization temperature, 275 °C.\n(§2) HepG2 cells were cultured at a density of 1×10^5 cells/mL in 12-well plates for 24 h to facilitate the conduct of cellular pharmacokinetic experiments. The old medium was aspirated and discarded, the wells were rinsed twice with PBS, and 1 mL of 100 μM baicalin and baicalin + PEG400 (0.25%, 0.5%, and 1%) was added into 12-well plates to initiate the timer. The culture was terminated after 0.25 h, 0.5 h, 1 h, 2 h, 4 h, 6 h, 8 h, 10 h, 12 h, and 24 h, respectively. Upon reaching the designated time for administration, the cell culture medium was removed, and the wells were washed with 1 mL of cold PBS solution. Subsequently, 240 μL of ultra-pure water were added to each well, and the sample was stored at −80 °C until analysis. The sample was subjected to sonication in an ice bath for 10 min in order to lyse the cells, thereby enabling the determination of the accumulated drug concentration within the cells. Subsequently, 20 μL of the cell lysate was collected, and the protein concentration was quantified using a BCA kit for normalization.\n(§3) After repeated freeze-thaw lysis, 100 μL of cell samples were taken, and 300 μL of 0.2% formic acid acetonitrile (containing 200 ng/mL genistein) were added to the vortex for 10 min to precipitate proteins and then centrifuged at 14,000 r/min for 10 min. Then the supernatant was blown dry under nitrogen at 40 °C and then reconstituted with 200 μL of methanol and centrifuged at 14,000 rpm for 10 min. The supernatant was subjected to UPLC-MS/MS analysis."}, "[2]": {"system": "HepG2 cells", "assay": "Pharmacokinetic study of baicalin in HepG2 cells (intracellular concentrations by UPLC-MS/MS)", "format": "in vitro ADME, human", "conditions": "HepG2 cells", "description": "as §1, §2, §3"}, "[3]": {"conditions": "HepG2 cells given 100 μM baicalin + H PEG400 (1%)"}, "[4]": {"conditions": "HepG2 cells given 100 μM baicalin + L PEG400 (0.25%)"}, "[5]": {"conditions": "HepG2 cells given 100 μM baicalin + M PEG400 (0.5%)"}, "[6]": {"conditions": "HepG2 cells given 100 μM baicalin alone (group BG, control)"}},
  "data": [
    {"smiles": "O=C(O)[C@H]1O[C@@H](Oc2cc3oc(-c4ccccc4)cc(=O)c3c(O)c2O)[C@H](O)[C@@H](O)[C@@H]1O", "note": "[BG, Baicalein-7-O-β-D-glucuronide]", "values": [
      {"measurement": "AUC(0-t) at 100 μM", "setting": "[1]; [3]", "result": "130 ± 5.26", "unit": "µg·h/mL"},
      {"measurement": "Cmax at 100 μM", "setting": "[1]; [3]", "result": "10.8 ± 0.35", "unit": "µg/mL"},
      {"measurement": "half-life at 100 μM", "setting": "[1]; [3]", "result": "5.43 ± 0.91", "unit": "h"},
      {"measurement": "AUC(0-t) at 100 μM", "setting": "[1]; [4]", "result": "107 ± 2.22", "unit": "µg·h/mL"},
      {"measurement": "Cmax at 100 μM", "setting": "[1]; [4]", "result": "10.2 ± 1.48", "unit": "µg/mL"},
      {"measurement": "half-life at 100 μM", "setting": "[1]; [4]", "result": "9.91 ± 3.76", "unit": "h"},
      {"measurement": "AUC(0-t) at 100 μM", "setting": "[1]; [5]", "result": "112 ± 3.99", "unit": "µg·h/mL"},
      {"measurement": "Cmax at 100 μM", "setting": "[1]; [5]", "result": "11.2 ± 1.5", "unit": "µg/mL"},
      {"measurement": "half-life at 100 μM", "setting": "[1]; [5]", "result": "6.02 ± 4.23", "unit": "h"},
      {"measurement": "Cmax at 100 μM", "setting": "[1]; [6]", "result": "7.84 ± 0.11", "unit": "µg/mL"},
      {"measurement": "half-life at 100 μM", "setting": "[1]; [6]", "result": "6.77 ± 5.92", "unit": "h"},
      {"measurement": "AUC(0-t) at 100 μM", "setting": "[1]; HepG2 cells given 100 μM baicalin alone (group BG, control), 0.25-24 h", "result": "76 ± 2.57", "unit": "µg·h/mL"},
      {"measurement": "Tmax at 100 μM", "setting": "[1]; [6]", "result": 6, "unit": "h"},
      {"measurement": "AUC0–t increase compared with the control group", "setting": "[2]; baicalin + high PEG400 (1%) vs baicalin alone", "result": 1.72, "unit": "fold"},
      {"measurement": "AUC0–t increase compared with the control group", "setting": "[2]; baicalin + low PEG400 (0.25%) vs baicalin alone", "result": 1.41, "unit": "fold"},
      {"measurement": "AUC0–t increase compared with the control group", "setting": "[2]; baicalin + medium PEG400 (0.5%) vs baicalin alone", "result": 1.48, "unit": "fold"}
    ]}
  ]
}
